Results from patent US20210147381A1, “1,2,3,4-SUBSTITUTED QUINOLINE COMPOUNDS AS SIP MODULATORS” (AbbVie Deutschland GmbH & Co. KG, priority 2017, published 2021).
Structures can show the parent of a compound that is named as a salt.

Columns and labels:
Format in all cases: cell-based
[1] = biological target: T1, human S1P5 receptor (S1PR5) (Homo sapiens, UniProt Q9H228); experiment: Intracellular Ca2+ release (method 1), agonist potency and efficacy, S1P5; settings: for Emax: maximum effect in % of reference agonist phospho-fingolimod (100%), read-out: hS1P5 EMax; for EC50: recombinant CHO-K1 cells expressing human S1PR5, aequorin, Gq/i5, Ca2+ release, read-out: S1P5 EC50 range
T1 construct: host or cells: CHO-K1
Procedure: (§1) Agonistic activity and efficacy of compounds was assessed in recombinant cells using method 1 described below.
(§2) Agonist potency and efficacy were assessed by measurement of intracellular Ca^2+ release. Recombinant CHO-K1 cells (Euroscreen, Brussels, Belgium) expressing human S1PR5, S1PR1, S1PR3 or S1PR4 receptors, aequorin, and GTP binding protein Gq/i5 were cultured using a medium containing nutrient mixture F-12 Ham (Sigma-Aldrich) with 10% FBS, and 100 μg/mL gentamicin and equilibrated at 5% CO2.
(§3) 15,000 cells in 20 μL medium were seeded into Biocoat poly-D-Lysine coated 384 well plates (Becton Dickinson #35-6663) and grown to 95% confluency after 24 h.
(§4) Culture medium was replaced by an assay buffer consisting of HBBS with Ca^2+ and Mg^2+ (Invitrogen #14025-050), 20 mmol/L Hepes (Sigma-Aldrich #H-3375), 2.5 mmol/L probenecid (Sigma-Aldrich #P-8761, and 0.1% BSA (Sigma-Aldrich #A-7030) pH 7.4. The Calcium 5 no-wash FLIPR assay kit (Molecular Devices #5000625) was performed as described in the kit instructions. Cells were incubated with Calcium 5 dye for 1 h at 37° C., 5% CO2 in the dark. After 45 min adaptation to RT assessment of agonist stimulation of intracellular Ca^2+ release was performed by addition of test compounds at various concentrations obtained by serial dilution. Phospho-fingolimod was used as positive control and reference agonist (intrinsic activity 100%).
(§5) Agonism of test compounds at the human S1Px receptors were characterized by the EC50 values (potencies) deduced from a nonlinear 4 parametric logistic curve fit to the measured fluorescence data after normalization to the lower and upper plateaus of the fitted reference agonist's (phospho-fingolimod)effect curve and by their efficacy (Emax) values represented by their maximum achievable effects in % of the reference agonist's efficacy, which is defined as an Emax of 100%.

[2] = biological target: T2, human S1P1 receptor (S1PR1) (Homo sapiens, UniProt P21453); experiment: Intracellular Ca2+ release (method 1), agonist potency, S1P1; settings: CHO-K1 cells expressing human S1PR1
T2 construct: host or cells: CHO-K1
Procedure: as §1, §2, §3, §4, §5

[3] = biological target: T3, human S1P3 receptor (S1PR3) (Homo sapiens, UniProt Q99500); experiment: Intracellular Ca2+ release (method 1), agonist potency, S1P3; settings: CHO-K1 cells expressing human S1PR3
T3 construct: host or cells: CHO-K1
Procedure: as §1, §2, §3, §4, §5

[4] = biological target: T4, human S1P4 receptor (S1PR4) (Homo sapiens, UniProt O95977); experiment: Intracellular Ca2+ release (method 1), agonist potency, S1P4; settings: CHO-K1 cells expressing human S1PR4
T4 construct: host or cells: CHO-K1
T4 sequence (O95977 1-384): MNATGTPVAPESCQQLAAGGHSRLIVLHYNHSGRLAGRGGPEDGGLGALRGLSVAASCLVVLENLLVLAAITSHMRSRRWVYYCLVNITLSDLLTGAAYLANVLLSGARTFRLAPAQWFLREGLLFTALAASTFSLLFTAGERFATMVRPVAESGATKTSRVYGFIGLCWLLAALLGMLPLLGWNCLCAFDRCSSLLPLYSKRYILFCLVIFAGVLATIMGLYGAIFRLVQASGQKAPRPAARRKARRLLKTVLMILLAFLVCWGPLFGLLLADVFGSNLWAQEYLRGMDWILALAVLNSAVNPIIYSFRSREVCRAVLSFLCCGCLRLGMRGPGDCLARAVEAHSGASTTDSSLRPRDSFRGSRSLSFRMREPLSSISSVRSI
Procedure: as §1, §2, §3, §4, §5

T1 sequence (Q9H228 whole entry): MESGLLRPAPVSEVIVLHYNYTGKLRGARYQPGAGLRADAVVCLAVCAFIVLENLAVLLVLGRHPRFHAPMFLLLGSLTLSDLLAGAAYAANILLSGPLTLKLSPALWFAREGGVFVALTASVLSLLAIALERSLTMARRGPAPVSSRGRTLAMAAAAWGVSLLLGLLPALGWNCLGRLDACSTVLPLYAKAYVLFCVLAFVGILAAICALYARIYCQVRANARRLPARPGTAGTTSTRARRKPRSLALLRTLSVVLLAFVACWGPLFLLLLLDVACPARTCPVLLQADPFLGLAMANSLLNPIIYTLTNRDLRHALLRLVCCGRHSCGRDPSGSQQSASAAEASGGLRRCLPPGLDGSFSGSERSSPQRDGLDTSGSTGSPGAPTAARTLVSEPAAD
T3 sequence (Q99500 whole entry): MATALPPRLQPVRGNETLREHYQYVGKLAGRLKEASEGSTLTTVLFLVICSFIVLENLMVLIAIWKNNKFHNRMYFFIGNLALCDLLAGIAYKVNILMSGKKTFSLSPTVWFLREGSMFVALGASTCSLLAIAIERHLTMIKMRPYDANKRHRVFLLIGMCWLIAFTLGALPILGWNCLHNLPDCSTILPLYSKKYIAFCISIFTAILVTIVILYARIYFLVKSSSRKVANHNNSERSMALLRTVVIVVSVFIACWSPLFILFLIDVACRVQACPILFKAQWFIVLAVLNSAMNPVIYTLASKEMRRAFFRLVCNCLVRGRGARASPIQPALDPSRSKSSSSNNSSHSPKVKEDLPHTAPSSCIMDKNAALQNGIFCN
T2 sequence (P21453 whole entry): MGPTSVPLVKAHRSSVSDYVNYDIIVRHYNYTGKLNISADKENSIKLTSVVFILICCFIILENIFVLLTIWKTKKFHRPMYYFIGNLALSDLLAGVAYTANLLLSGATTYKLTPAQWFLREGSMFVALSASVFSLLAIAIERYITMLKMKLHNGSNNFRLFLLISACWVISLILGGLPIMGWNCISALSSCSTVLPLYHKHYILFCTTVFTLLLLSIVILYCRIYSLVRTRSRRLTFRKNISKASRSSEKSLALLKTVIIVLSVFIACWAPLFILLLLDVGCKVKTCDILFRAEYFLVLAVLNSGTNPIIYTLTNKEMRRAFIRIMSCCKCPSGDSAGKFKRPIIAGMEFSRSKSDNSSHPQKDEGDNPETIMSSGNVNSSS

Compound | Emax [1] | EC50 [1] | EC50 ([2]; cells given as bound) | EC50 [3] | EC50 [4] | EC50 [2] | EC50 ([4]; cells given as bound)
O=C(O)CCCN1Cc2ccc(OCc3ccc(Cl)c(Cl)c3)cc2C2(CC2)C1 [Compound 26, 4-(6′-((3,4-Dichlorobenzyl)oxy)-1′H-spiro[cyclopropane-1,4′-isoquinolin]-2′(3′H)-yl)butanoic acid] | 50 to 100% | 10 to 100 nM | > 1000 nM | > 1000 nM | 10 to 100 nM |  | 
CCc1cccc(Cl)c1COc1ccc2c(c1)C1(CC1)CN(CCCC(=O)O)C2 [Compound 27, 4-(6′-((2-Chloro-6-ethylbenzyl)oxy)-1′H-spiro[cyclopropane-1,4′-isoquinolin]-2′(3′H)-yl)butanoic acid] | > 100% | < 10 nM | > 1000 nM | > 1000 nM | < 10 nM |  | 
CCc1cccc(Cl)c1COc1ccc2c(c1)C1(CC1)CN(C(C)C(=O)O)C2 (centres unmarked) [Compound 28, 2-(6′-((2-Chloro-6-ethylbenzyl)oxy)-1′H-spiro[cyclopropane-1,4′-isoquinolin]-2′(3′H)-yl)propanoic acid] | 50 to 100% | 10 to 100 nM | > 1000 nM | > 1000 nM | 100 to 1000 nM |  | 
CC(C)c1ccc(C#Cc2ccc3c(c2)C2(CC2)CN(CCC(=O)O)C3)cc1 [Compound 31, 3-(6′-((4-isopropylphenyl)ethynyl)-1′H-spiro[cyclopropane-1,4′-isoquinolin]-2′(3′H)-yl)propanoic acid acetic acid salt (1:1)] | > 100% | < 10 nM |  | > 1000 nM |  | 100 to 1000 nM | > 1000 nM
O=C(O)CCN1Cc2ccc(C#Cc3cc(F)cc(F)c3)cc2C2(CC2)C1 [Compound 32, 3-(6′-((3,5-difluorophenyl)ethynyl)-1′H-spiro[cyclopropane-1,4′-isoquinolin]-2′(3′H)-yl)propanoic acid acetic acid salt (1:1)] | 50 to 100% | < 10 nM | > 1000 nM | > 1000 nM | 100 to 1000 nM |  | 
O=C(O)CCN1Cc2ccc(C#Cc3cccc(Cl)c3)cc2C2(CC2)C1 [Compound 33, 3-(6′-((3-chlorophenyl)ethynyl)-1′H-spiro[cyclopropane-1,4′-isoquinolin]-2′(3′H)-yl)propanoic acid acetic acid salt (1:1)] | < 50% | < 10 nM | > 1000 nM | > 1000 nM | < 10 nM |  | 
CCOc1ccc(C#Cc2ccc3c(c2)C2(CC2)CN(CCC(=O)O)C3)cc1 [Compound 34, 3-(6′-((4-ethoxyphenyl)ethynyl)-1′H-spiro[cyclopropane-1,4′-isoquinolin]-2′(3′H)-yl)propanoic acid acetic acid salt (1:1)] | 50 to 100% | < 10 nM | > 1000 nM | > 1000 nM |  |  | > 1000 nM

Next, values leading:

Emax [1] | EC50 [1] | EC50 ([2]; cells given as bound) | EC50 [3] | EC50 [4] | EC50 [2] | EC50 ([4]; cells given as bound) | Compound
50 to 100% | < 10 nM | > 1000 nM | > 1000 nM | 100 to 1000 nM |  |  | O=C(O)CCN1Cc2ccc(C#Cc3ccccc3Cl)cc2C2(CC2)C1 [Compound 35, 3-(6′-((2-chlorophenyl)ethynyl)-1′H-spiro[cyclopropane-1,4′-isoquinolin]-2′(3′H)-yl)propanoic acid]
50 to 100% | < 10 nM | > 1000 nM | > 1000 nM | 100 to 1000 nM |  |  | O=C(O)CCN1Cc2ccc(C#Cc3c(F)cccc3F)cc2C2(CC2)C1 [Compound 36, 3-(6′-((2,6-difluorophenyl)ethynyl)-1′H-spiro[cyclopropane-1,4′-isoquinolin]-2′(3′H)-yl)propanoic acid acetic acid salt (1:1)]
50 to 100% | 10 to 100 nM | > 1000 nM | > 1000 nM | 100 to 1000 nM |  |  | Cc1ccccc1C#Cc1ccc2c(c1)C1(CC1)CN(CCC(=O)O)C2 [Compound 37, 3-(6′-(o-tolylethynyl)-1′H-spiro[cyclopropane-1,4′-isoquinolin]-2′(3′H)-yl)propanoic acid acetic acid salt (1:1)]
